{"source": "paper PMC12373846", "about": "“Hemoglobin as a pseudoperoxidase and drug target for oxidative stress-related diseases” (Signal Transduction and Targeted Therapy, 2025)", "test_in_all_cases": "KINOMEscan", "type_in_all_cases": "binding", "conditions_in_all_cases": "10000 nM; read-out: Percent Control", "key": {"MKNK1": {"target": "T1, MKNK1 (Homo sapiens, UniProt Q9BUB5)", "T1 construct": "purchased DiscoverX KINOMEscan scanEDGE; Eurofins Cerep SafetyScreen87", "procedure": "(§1) The possibility of KDS12025 on kinase off-target, the KINOMEscan panel of scanEDGE assay was conducted in DiscoverX (CA, USA) using a site-directed competition binding with the test compounds. The assay results are given in Supplementary Table 4 and experimental information is available on the DiscoverX web page (www.discoverx.com). Moreover, the Delta SafetyScreen87 panel assay was conducted in Eurofins Discovery (Cerep, France). The assay results are given in Supplementary Table 5 and experimental information is available on the DiscoverX web page (https://www.eurofinsdiscoveryservices.com)."}, "MARK3": {"target": "T2, MARK3 (Homo sapiens, UniProt P27448)", "T2 construct": "purchased DiscoverX KINOMEscan scanEDGE; Eurofins Cerep SafetyScreen87", "procedure": "as §1"}, "ERBB4": {"target": "T3, ERBB4 (Homo sapiens, UniProt Q15303)", "T3 construct": "purchased DiscoverX KINOMEscan scanEDGE; Eurofins Cerep SafetyScreen87", "procedure": "as §1"}, "SNARK": {"target": "T4, SNARK (Homo sapiens, UniProt Q9H093)", "T4 construct": "purchased DiscoverX KINOMEscan scanEDGE; Eurofins Cerep SafetyScreen87", "procedure": "as §1"}, "EGFR": {"target": "T5, EGFR (Homo sapiens, UniProt P00533)", "T5 construct": "purchased DiscoverX KINOMEscan scanEDGE; Eurofins Cerep SafetyScreen87", "T5 sequence (P00533 25-1210)": "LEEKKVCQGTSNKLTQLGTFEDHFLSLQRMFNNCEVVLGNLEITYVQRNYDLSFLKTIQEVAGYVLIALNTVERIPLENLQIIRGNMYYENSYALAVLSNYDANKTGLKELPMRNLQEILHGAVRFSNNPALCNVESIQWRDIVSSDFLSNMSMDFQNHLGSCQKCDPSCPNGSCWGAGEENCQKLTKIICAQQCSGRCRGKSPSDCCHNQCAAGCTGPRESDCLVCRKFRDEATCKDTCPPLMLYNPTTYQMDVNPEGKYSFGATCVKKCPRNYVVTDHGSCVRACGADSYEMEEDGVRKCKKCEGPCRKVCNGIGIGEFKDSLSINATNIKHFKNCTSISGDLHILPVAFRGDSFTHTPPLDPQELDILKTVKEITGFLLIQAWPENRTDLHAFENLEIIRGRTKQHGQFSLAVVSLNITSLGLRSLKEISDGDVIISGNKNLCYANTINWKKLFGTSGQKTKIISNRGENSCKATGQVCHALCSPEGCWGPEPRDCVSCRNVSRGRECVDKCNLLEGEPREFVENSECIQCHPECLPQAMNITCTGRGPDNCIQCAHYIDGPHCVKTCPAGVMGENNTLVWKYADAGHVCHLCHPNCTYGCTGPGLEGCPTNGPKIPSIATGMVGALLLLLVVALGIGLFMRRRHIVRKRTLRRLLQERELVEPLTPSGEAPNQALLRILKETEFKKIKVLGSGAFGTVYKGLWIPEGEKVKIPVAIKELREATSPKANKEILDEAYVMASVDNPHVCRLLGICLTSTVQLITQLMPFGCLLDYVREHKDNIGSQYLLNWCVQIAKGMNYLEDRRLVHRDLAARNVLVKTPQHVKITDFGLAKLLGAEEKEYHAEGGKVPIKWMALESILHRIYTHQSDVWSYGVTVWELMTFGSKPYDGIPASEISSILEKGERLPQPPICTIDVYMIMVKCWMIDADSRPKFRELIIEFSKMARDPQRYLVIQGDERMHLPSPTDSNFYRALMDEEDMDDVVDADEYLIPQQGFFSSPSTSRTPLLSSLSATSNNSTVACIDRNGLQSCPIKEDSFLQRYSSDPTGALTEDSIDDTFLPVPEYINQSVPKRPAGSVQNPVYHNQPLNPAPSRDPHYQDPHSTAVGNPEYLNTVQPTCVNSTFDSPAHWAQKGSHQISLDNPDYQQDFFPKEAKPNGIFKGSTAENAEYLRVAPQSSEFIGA", "procedure": "as §1"}, "MKNK2": {"target": "T6, MKNK2 (Homo sapiens, UniProt Q9HBH9)", "T6 construct": "purchased DiscoverX KINOMEscan scanEDGE; Eurofins Cerep SafetyScreen87", "procedure": "as §1"}, "PAK2": {"target": "T7, PAK2 (Homo sapiens, UniProt Q13177)", "T7 construct": "purchased DiscoverX KINOMEscan scanEDGE; Eurofins Cerep SafetyScreen87", "procedure": "as §1"}, "PDPK1": {"target": "T8, PDPK1 (Homo sapiens, UniProt O15530)", "T8 construct": "purchased DiscoverX KINOMEscan scanEDGE; Eurofins Cerep SafetyScreen87", "procedure": "as §1"}, "RIOK2": {"target": "T9, RIOK2 (Homo sapiens, UniProt Q9BVS4)", "T9 construct": "purchased DiscoverX KINOMEscan scanEDGE; Eurofins Cerep SafetyScreen87", "procedure": "as §1"}, "IGF1R": {"target": "T10, IGF1R (Homo sapiens, UniProt P08069)", "T10 construct": "purchased DiscoverX KINOMEscan scanEDGE; Eurofins Cerep SafetyScreen87", "procedure": "as §1"}, "MAP3K4": {"target": "T11, MAP3K4 (Homo sapiens, UniProt Q9Y6R4)", "T11 construct": "purchased DiscoverX KINOMEscan scanEDGE; Eurofins Cerep SafetyScreen87", "procedure": "as §1"}, "KIT(D816V)": {"target": "T12, KIT(D816V) (Homo sapiens, UniProt P10721, D816V)", "T12 construct": "purchased DiscoverX KINOMEscan scanEDGE; Eurofins Cerep SafetyScreen87", "procedure": "as §1"}, "PIM2": {"target": "T13, PIM2 (Homo sapiens, UniProt Q9P1W9)", "T13 construct": "purchased DiscoverX KINOMEscan scanEDGE; Eurofins Cerep SafetyScreen87", "procedure": "as §1"}, "[1]": {"target": "T14, ABL1(E255K)-phosphorylated (Homo sapiens, UniProt P00519, E255K)", "T14 construct": "purchased DiscoverX KINOMEscan scanEDGE; Eurofins Cerep SafetyScreen87", "T14 sequence (P00519 whole entry E255K)": "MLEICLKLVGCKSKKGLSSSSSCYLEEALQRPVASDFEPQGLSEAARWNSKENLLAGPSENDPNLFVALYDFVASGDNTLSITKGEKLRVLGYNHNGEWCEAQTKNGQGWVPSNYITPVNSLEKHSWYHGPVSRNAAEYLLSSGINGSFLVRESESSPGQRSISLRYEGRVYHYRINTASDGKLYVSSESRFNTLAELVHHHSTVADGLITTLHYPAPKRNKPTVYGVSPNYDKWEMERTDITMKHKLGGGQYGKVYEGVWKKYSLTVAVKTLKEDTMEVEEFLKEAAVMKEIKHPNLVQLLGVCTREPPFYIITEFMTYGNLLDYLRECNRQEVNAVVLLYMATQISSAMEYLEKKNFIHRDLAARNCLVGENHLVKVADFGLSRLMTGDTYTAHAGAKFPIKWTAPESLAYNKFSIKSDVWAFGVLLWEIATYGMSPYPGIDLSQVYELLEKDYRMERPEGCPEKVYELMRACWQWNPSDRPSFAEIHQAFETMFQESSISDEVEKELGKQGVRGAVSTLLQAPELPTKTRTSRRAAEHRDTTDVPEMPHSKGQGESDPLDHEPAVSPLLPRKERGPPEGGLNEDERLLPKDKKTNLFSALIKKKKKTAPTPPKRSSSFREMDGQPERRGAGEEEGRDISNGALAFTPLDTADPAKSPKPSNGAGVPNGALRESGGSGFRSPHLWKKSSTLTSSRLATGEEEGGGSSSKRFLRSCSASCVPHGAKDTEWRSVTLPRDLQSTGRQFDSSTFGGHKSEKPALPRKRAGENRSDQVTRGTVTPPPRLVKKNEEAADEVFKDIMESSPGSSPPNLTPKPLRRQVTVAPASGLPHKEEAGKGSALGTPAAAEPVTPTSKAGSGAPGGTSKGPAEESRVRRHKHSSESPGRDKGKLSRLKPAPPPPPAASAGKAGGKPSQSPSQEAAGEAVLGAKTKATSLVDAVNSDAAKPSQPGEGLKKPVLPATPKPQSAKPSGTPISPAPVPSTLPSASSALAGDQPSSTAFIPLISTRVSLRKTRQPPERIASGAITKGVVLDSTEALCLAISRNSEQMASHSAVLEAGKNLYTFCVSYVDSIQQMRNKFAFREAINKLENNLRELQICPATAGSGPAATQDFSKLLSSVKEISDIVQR", "procedure": "as §1"}, "CDK7": {"target": "T15, CDK7 (Homo sapiens, UniProt P50613)", "T15 construct": "purchased DiscoverX KINOMEscan scanEDGE; Eurofins Cerep SafetyScreen87", "procedure": "as §1"}, "PCTK1": {"target": "T16, PCTK1 (Homo sapiens, UniProt Q00536)", "T16 construct": "purchased DiscoverX KINOMEscan scanEDGE; Eurofins Cerep SafetyScreen87", "procedure": "as §1"}, "BTK": {"target": "T17, BTK (Homo sapiens, UniProt Q06187)", "T17 construct": "purchased DiscoverX KINOMEscan scanEDGE; Eurofins Cerep SafetyScreen87", "procedure": "as §1"}, "EPHA2": {"target": "T18, EPHA2 (Homo sapiens, UniProt P29317)", "T18 construct": "purchased DiscoverX KINOMEscan scanEDGE; Eurofins Cerep SafetyScreen87", "procedure": "as §1"}, "p38-alpha": {"target": "T19, p38-alpha (Homo sapiens, UniProt Q16539)", "T19 construct": "purchased DiscoverX KINOMEscan scanEDGE; Eurofins Cerep SafetyScreen87", "procedure": "as §1"}, "TSSK1B": {"target": "T20, TSSK1B (Homo sapiens, UniProt Q9BXA7)", "T20 construct": "purchased DiscoverX KINOMEscan scanEDGE; Eurofins Cerep SafetyScreen87", "procedure": "as §1"}, "ROCK2": {"target": "T21, ROCK2 (Homo sapiens, UniProt O75116)", "T21 construct": "purchased DiscoverX KINOMEscan scanEDGE; Eurofins Cerep SafetyScreen87", "procedure": "as §1"}, "RAF1": {"target": "T22, RAF1 (Homo sapiens, UniProt P04049)", "T22 construct": "purchased DiscoverX KINOMEscan scanEDGE; Eurofins Cerep SafetyScreen87", "procedure": "as §1"}, "ADCK3": {"target": "T23, ADCK3 (Homo sapiens, UniProt Q8NI60)", "T23 construct": "purchased DiscoverX KINOMEscan scanEDGE; Eurofins Cerep SafetyScreen87", "procedure": "as §1"}, "SRPK3": {"target": "T24, SRPK3 (Homo sapiens, UniProt Q9UPE1)", "T24 construct": "purchased DiscoverX KINOMEscan scanEDGE; Eurofins Cerep SafetyScreen87", "procedure": "as §1"}, "CDK3": {"target": "T25, CDK3 (Homo sapiens, UniProt Q00526)", "T25 construct": "purchased DiscoverX KINOMEscan scanEDGE; Eurofins Cerep SafetyScreen87", "procedure": "as §1"}, "MAPKAPK2": {"target": "T26, MAPKAPK2 (Homo sapiens, UniProt P49137)", "T26 construct": "purchased DiscoverX KINOMEscan scanEDGE; Eurofins Cerep SafetyScreen87", "procedure": "as §1"}, "PKAC-alpha": {"target": "T27, PKAC-alpha (Homo sapiens, UniProt P17612)", "T27 construct": "purchased DiscoverX KINOMEscan scanEDGE; Eurofins Cerep SafetyScreen87", "procedure": "as §1"}, "FGFR2": {"target": "T28, FGFR2 (Homo sapiens, UniProt P21802)", "T28 construct": "purchased DiscoverX KINOMEscan scanEDGE; Eurofins Cerep SafetyScreen87", "T28 sequence (P21802 22-821)": "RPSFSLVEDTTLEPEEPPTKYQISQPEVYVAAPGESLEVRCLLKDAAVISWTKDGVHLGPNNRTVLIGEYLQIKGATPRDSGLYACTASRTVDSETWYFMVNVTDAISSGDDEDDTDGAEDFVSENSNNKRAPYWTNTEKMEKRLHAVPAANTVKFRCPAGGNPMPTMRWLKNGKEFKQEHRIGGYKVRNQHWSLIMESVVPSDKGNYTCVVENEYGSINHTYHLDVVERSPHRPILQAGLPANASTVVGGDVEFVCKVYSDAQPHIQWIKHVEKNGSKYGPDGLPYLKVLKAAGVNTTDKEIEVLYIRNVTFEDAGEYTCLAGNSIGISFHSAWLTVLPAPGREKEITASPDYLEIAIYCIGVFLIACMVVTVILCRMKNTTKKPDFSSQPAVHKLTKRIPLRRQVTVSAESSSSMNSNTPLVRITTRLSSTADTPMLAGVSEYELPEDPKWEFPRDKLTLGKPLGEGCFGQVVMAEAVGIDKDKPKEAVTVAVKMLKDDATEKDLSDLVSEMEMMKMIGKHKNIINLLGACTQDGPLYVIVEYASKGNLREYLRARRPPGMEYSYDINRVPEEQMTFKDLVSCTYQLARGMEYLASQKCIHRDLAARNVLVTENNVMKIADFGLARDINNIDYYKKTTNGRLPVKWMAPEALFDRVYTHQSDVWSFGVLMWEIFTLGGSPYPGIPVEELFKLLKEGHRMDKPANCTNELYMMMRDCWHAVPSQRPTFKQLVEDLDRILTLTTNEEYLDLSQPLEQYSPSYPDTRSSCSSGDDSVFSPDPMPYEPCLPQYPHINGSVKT", "procedure": "as §1"}, "CSNK1G2": {"target": "T29, CSNK1G2 (Homo sapiens, UniProt P78368)", "T29 construct": "purchased DiscoverX KINOMEscan scanEDGE; Eurofins Cerep SafetyScreen87", "procedure": "as §1"}, "INSR": {"target": "T30, INSR (Homo sapiens, UniProt P06213)", "T30 construct": "purchased DiscoverX KINOMEscan scanEDGE; Eurofins Cerep SafetyScreen87", "T30 sequence (P06213 28-1382)": "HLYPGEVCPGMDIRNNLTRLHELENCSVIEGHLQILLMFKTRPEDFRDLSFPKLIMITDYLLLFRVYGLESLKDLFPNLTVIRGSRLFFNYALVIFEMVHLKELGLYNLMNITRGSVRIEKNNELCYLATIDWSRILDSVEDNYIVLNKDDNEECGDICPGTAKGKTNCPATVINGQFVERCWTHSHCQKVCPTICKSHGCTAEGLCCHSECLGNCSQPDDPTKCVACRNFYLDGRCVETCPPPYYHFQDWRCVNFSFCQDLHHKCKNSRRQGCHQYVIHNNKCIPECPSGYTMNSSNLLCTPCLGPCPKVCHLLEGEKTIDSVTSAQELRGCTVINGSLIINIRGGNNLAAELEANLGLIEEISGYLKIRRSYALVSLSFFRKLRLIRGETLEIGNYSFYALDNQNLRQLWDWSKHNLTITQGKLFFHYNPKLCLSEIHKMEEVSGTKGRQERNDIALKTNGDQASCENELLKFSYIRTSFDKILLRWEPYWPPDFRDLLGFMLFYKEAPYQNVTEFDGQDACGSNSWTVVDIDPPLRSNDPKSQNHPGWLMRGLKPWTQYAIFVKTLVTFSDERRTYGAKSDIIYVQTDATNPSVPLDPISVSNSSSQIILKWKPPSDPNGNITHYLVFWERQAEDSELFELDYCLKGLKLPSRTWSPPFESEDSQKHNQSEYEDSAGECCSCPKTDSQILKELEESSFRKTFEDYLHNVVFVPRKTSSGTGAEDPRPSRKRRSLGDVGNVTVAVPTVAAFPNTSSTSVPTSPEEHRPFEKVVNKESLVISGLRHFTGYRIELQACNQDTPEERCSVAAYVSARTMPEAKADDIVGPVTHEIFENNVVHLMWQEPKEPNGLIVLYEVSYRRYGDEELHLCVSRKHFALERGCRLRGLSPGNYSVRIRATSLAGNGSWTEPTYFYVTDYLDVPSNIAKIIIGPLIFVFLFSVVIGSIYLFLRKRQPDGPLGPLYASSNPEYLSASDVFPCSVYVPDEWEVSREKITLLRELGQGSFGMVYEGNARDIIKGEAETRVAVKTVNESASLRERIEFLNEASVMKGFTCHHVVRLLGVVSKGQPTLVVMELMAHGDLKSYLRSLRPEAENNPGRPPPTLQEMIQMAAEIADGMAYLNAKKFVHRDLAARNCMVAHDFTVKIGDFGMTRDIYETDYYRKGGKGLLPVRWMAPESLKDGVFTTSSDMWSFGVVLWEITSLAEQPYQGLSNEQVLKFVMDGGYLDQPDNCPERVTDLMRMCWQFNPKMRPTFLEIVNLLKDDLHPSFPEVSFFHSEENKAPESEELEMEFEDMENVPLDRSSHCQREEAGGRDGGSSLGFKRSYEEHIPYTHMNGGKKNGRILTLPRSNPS", "procedure": "as §1"}, "CHEK1": {"target": "T31, CHEK1 (Homo sapiens, UniProt O14757)", "T31 construct": "purchased DiscoverX KINOMEscan scanEDGE; Eurofins Cerep SafetyScreen87", "procedure": "as §1"}, "MEK1": {"target": "T32, MEK1 (Homo sapiens, UniProt Q02750)", "T32 construct": "purchased DiscoverX KINOMEscan scanEDGE; Eurofins Cerep SafetyScreen87", "procedure": "as §1"}, "[2]": {"target": "T33, TYK2(JH1domain-catalytic) (Homo sapiens, UniProt P29597)", "T33 construct": "TYK2(JH1domain-catalytic); purchased DiscoverX KINOMEscan scanEDGE; Eurofins Cerep SafetyScreen87", "T33 sequence (P29597 876-1187 limits assumed)": "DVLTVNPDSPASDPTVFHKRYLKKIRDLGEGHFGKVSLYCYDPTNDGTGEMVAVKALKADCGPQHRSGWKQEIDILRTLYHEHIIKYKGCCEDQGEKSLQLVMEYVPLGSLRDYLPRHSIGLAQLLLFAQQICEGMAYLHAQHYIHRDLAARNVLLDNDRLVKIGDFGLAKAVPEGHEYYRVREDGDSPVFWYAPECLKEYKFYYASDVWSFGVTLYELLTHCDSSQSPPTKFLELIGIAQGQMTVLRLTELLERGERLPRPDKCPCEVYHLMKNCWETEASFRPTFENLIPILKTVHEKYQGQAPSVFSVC", "procedure": "as §1"}, "PLK4": {"target": "T34, PLK4 (Homo sapiens, UniProt O00444)", "T34 construct": "purchased DiscoverX KINOMEscan scanEDGE; Eurofins Cerep SafetyScreen87", "procedure": "as §1"}, "ABL1-nonphosphorylated": {"target": "T35, ABL1-nonphosphorylated (Homo sapiens, UniProt P00519)", "T35 construct": "purchased DiscoverX KINOMEscan scanEDGE; Eurofins Cerep SafetyScreen87", "procedure": "as §1"}, "PLK3": {"target": "T36, PLK3 (Homo sapiens, UniProt Q9H4B4)", "T36 construct": "purchased DiscoverX KINOMEscan scanEDGE; Eurofins Cerep SafetyScreen87", "procedure": "as §1"}, "AURKB": {"target": "T37, AURKB (Homo sapiens, UniProt Q96GD4)", "T37 construct": "purchased DiscoverX KINOMEscan scanEDGE; Eurofins Cerep SafetyScreen87", "procedure": "as §1"}, "[3]": {"target": "T38, JAK3(JH1domain-catalytic) (Homo sapiens, UniProt P52333)", "T38 construct": "JAK3(JH1domain-catalytic); purchased DiscoverX KINOMEscan scanEDGE; Eurofins Cerep SafetyScreen87", "T38 sequence (P52333 811-1124 limits assumed)": "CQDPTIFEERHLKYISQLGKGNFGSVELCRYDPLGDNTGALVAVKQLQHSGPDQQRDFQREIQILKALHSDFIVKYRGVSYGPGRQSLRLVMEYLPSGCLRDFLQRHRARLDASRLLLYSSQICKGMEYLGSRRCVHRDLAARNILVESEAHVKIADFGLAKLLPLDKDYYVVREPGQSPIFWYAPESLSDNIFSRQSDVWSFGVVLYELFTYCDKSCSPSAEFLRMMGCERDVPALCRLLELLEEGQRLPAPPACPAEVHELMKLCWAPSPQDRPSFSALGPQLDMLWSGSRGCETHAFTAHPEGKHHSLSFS", "procedure": "as §1"}, "SRC": {"target": "T39, SRC (Homo sapiens, UniProt P12931)", "T39 construct": "purchased DiscoverX KINOMEscan scanEDGE; Eurofins Cerep SafetyScreen87", "procedure": "as §1"}}, "data": [{"smiles": "CNc1ccc(NCCc2ccccc2OC)cc1.Cl", "note": "[KDS12025, N^1-(2-methoxyphenethyl)-N^4-methylbenzene-1,4-diamine hydrochloride salt]", "values": [{"measurement": "remaining binding at 10 µM", "setting": "MKNK1", "value": 100, "unit": "%"}, {"measurement": "remaining binding at 10 µM", "setting": "MARK3", "value": 66, "unit": "%"}, {"measurement": "remaining binding at 10 µM", "setting": "ERBB4", "value": 92, "unit": "%"}, {"measurement": "remaining binding at 10 µM", "setting": "SNARK", "value": 100, "unit": "%"}, {"measurement": "remaining binding at 10 µM", "setting": "EGFR", "value": 48, "unit": "%"}, {"measurement": "remaining binding at 10 µM", "setting": "MKNK2", "value": 95, "unit": "%"}, {"measurement": "remaining binding at 10 µM", "setting": "PAK2", "value": 94, "unit": "%"}, {"measurement": "remaining binding at 10 µM", "setting": "PDPK1", "value": 56, "unit": "%"}, {"measurement": "remaining binding at 10 µM", "setting": "RIOK2", "value": 98, "unit": "%"}, {"measurement": "remaining binding at 10 µM", "setting": "IGF1R", "value": 84, "unit": "%"}, {"measurement": "remaining binding at 10 µM", "setting": "MAP3K4", "value": 100, "unit": "%"}, {"measurement": "remaining binding at 10 µM", "setting": "KIT(D816V)", "value": 91, "unit": "%"}, {"measurement": "remaining binding at 10 µM", "setting": "PIM2", "value": 64, "unit": "%"}, {"measurement": "remaining binding at 10 µM", "setting": "[1]", "value": 100, "unit": "%"}, {"measurement": "remaining binding at 10 µM", "setting": "CDK7", "value": 89, "unit": "%"}, {"measurement": "remaining binding at 10 µM", "setting": "PCTK1", "value": 94, "unit": "%"}, {"measurement": "remaining binding at 10 µM", "setting": "BTK", "value": 100, "unit": "%"}, {"measurement": "remaining binding at 10 µM", "setting": "EPHA2", "value": 89, "unit": "%"}, {"measurement": "remaining binding at 10 µM", "setting": "p38-alpha", "value": 100, "unit": "%"}, {"measurement": "remaining binding at 10 µM", "setting": "TSSK1B", "value": 45, "unit": "%"}, {"measurement": "remaining binding at 10 µM", "setting": "ROCK2", "value": 85, "unit": "%"}, {"measurement": "remaining binding at 10 µM", "setting": "RAF1", "value": 95, "unit": "%"}, {"measurement": "remaining binding at 10 µM", "setting": "ADCK3", "value": 93, "unit": "%"}, {"measurement": "remaining binding at 10 µM", "setting": "SRPK3", "value": 91, "unit": "%"}, {"measurement": "remaining binding at 10 µM", "setting": "CDK3", "value": 79, "unit": "%"}, {"measurement": "remaining binding at 10 µM", "setting": "MAPKAPK2", "value": 75, "unit": "%"}, {"measurement": "remaining binding at 10 µM", "setting": "PKAC-alpha", "value": 74, "unit": "%"}, {"measurement": "remaining binding at 10 µM", "setting": "FGFR2", "value": 87, "unit": "%"}, {"measurement": "remaining binding at 10 µM", "setting": "CSNK1G2", "value": 45, "unit": "%"}, {"measurement": "remaining binding at 10 µM", "setting": "INSR", "value": 85, "unit": "%"}, {"measurement": "remaining binding at 10 µM", "setting": "CHEK1", "value": 82, "unit": "%"}, {"measurement": "remaining binding at 10 µM", "setting": "MEK1", "value": 82, "unit": "%"}, {"measurement": "remaining binding at 10 µM", "setting": "[2]", "value": 93, "unit": "%"}, {"measurement": "remaining binding at 10 µM", "setting": "PLK4", "value": 77, "unit": "%"}, {"measurement": "remaining binding at 10 µM", "setting": "ABL1-nonphosphorylated", "value": 72, "unit": "%"}, {"measurement": "remaining binding at 10 µM", "setting": "PLK3", "value": 75, "unit": "%"}, {"measurement": "remaining binding at 10 µM", "setting": "AURKB", "value": 78, "unit": "%"}, {"measurement": "remaining binding at 10 µM", "setting": "[3]", "value": 76, "unit": "%"}, {"measurement": "remaining binding at 10 µM", "setting": "SRC", "value": 72, "unit": "%"}]}]}
